Measured values: patent US20150023954A1, “POTENTIATING ANTIBODY-INDUCED COMPLEMENT-MEDIATED CYTOTOXICITY VIA PI3K INHIBITION” (MEMORIAL SLOAN-KETTERING CANCER CENTER, priority 2012, published 2015)
“Also recorded” adds a separate entry of the source.

How the values were obtained:
[1] = test system: tumor cells; assay: Cell growth experiments with MEK inhibitors and low dose PGNX; type: cell-based; conditions: PGNX less than 0.0001 μg/m; AZD6244 0.1 μM-5.0 μM; data not shown
Excerpt: (§1) WST-1 assay. […] The Student t test was used for statistical analysis.

[2] = test system: DaudiLuc cells; assay: WST-1 cell growth assay, DaudiLuc; type: cell-based, human
Excerpt: as §1

[3] = test system: p-PRAS40; assay: Western blot of p-PRAS40 in CHLA136Luc cell extracts; type: cell-based, human; conditions: BEZ235; cells treated with PGNX 0.001 μg/m for 4 hours
Protocol: (§2) Western blot. 1×10^6 Cells were plated into 6 well plates and incubated overnight. Cells were then treated with BEZ235, mAbs and human sera complement at the dose indicated for 4 hours. At the end of incubation, cells were collected and lysed with lysis buffer from Cell Signal (Danvers, Mass.), which contains protease inhibitor cocktail and phosphatase inhibitor cocktail (Calbiochem, Philadelphia, Pa.), each at 1:100 dilution (Cocktails:lysis buffer). The cell lysates were then quantitated using Bradford assay (Bio-Rad, Hercules, Calif.) according to that company's manual: 30 μg of cell lysate protein from each sample were running on 7.5% of Tris-HCL gel (Bio-Rad) and transferred to a PVDF membrane. Membrane was then blocked with Pierce blocking buffer overnight at 4° C., probed with indicated mAbs at 1:1000 dilution overnight at 4° C. and HRP-goat anti-rabbit-IgG antibody at 1:1000 for 1 hour. The membrane was washed with PBS-T (0.1% Tween-20+PBS) 5 minutes on a shaker 5 times after each incubating and then developed using Amersham™ ECL™ Prime Western Blotting Detection Reagent (GE Healthcare, Piscataway, N.J.). Imaging was acquired by scanning the membrane on the FujiFilm LAS-3000 Imager.

[4] = test system: p-Akt; assay: Western blot and immunofluorescent staining of p-Akt in Colo205 cells; type: cell-based
Protocol: as §2

[5] = test system: p-Akt; assay: Western blot of p-Akt in CHLA136Luc cell extracts; type: cell-based, human; conditions: BEZ235; cells treated with PGNX 0.001 μg/m for 4 hours
Protocol: as §2

[6] = test system: CHLA136Luc cells; assay: WST-1 cell growth assay, CHLA136Luc; type: cell-based, human; conditions: for higher mAb dose (plus complement) cytotoxicity / low mAb dose (plus complement) growth acceleration: all inhibitor dose levels, with PGNX, 18 hours
Excerpt: as §1

[7] = test system: CHLA136Luc cells; assay: IV CHLA136Luc tumor challenge in SCID mice: survival and tumor growth by luciferase imaging; type: in vivo, CB17 SCID mice
Protocol: Animals. CB17 SCID mice (Taconic) 5-8 weeks old were housed 5 to a cage. The Memorial Sloan Kettering Cancer Center Institutional Animal Care and Use Committee (IACUC) approved all protocols and procedures.
Tumor Challenge. Mice were placed under a heat lamp for 3 minutes and immobilized in a mouse restrainer; 0.5 million CHLA136Luc cells in 100 μl were injected into the tail vein using a BD insulin syringe with 28 gauge needle.
(§3) mAb administration. Mice were treated with murine mAbs 3F8, PGNX, R24, against GD2, GM2, GD3 and Rituxan against CD20. Control mice, typically 2 cages of 5 mice, were treated identically, receiving the same volume of PBS at the same intervals.
Imaging. Mice were anaesthetized using isoflurane and injected with 300 μg of D-Luciferin Firefly (Caliper LifeScience, Hopkinton, Mass.). They were imaged 10 minutes later using the IVIS200 in vivo imaging system (Caliper Life Science) over periods of time ranging up to 3 minutes using the software program “Living Image 3.0” (Caliper Life Science). Values are reported as photons/second.
Statistical analysis. Overall survival was defined as the time from IV tumor cell challenge to date of death or day 160. Survival distributions were generated using Kaplan-Meier methodology (Kaplan, “Nonparametric estimation from incomplete observations”, J. Am. Stat. Assoc., 1958, 53:457-81) and comparisons between treatment group and control (PBS) were made via the […] (using Graphpad Prism 5).

[8] = test system: Colo205Luc cells; assay: Cell growth assay, Colo205; conditions: for 5B1 cytotoxicity: all inhibitor doses tested, overnight with mAb 5B1 and HuC 5%; for tumor cell (Colo205) growth: high concentration of antibody, better than either inhibitor alone (FIG. 5C, 5D); for PGNX induced tumor cell cytotoxicity: highest PGNX and inhibitor dose tested; for tumor cell growth induced by low dose PGNX and complement: low dose PGNX (e.g., 0.0001 μg/ml), HuC′ 50 μl/ml
Protocol: (§4) WST-1 assay. WST-1 cell proliferation assay kit was used for detection of the extent of cellular proliferation according to the company's manual. Briefly, 20,000 cells in 100 μl of culture media as defined above were plated in a 96 well flat bottom plate and incubated at 37° C. in 5% CO2 overnight. Antibody doses between 0.02 ρg to 5 μg in 1 μl of defined culture media were added to each well and incubated for 1 hour at 37° C., 5% CO2; 4-10 μl of human serum complement (Quidel Corp. San Diego, Calif.) was then added to each well and incubated overnight. For assays testing the impact of PI3K inhibitor, BEZ235 (Chemdea, Ridgewood, N.J.) at 0.005, 0.5 or 5.0 μg/ml were added accordingly at same time when mAb was added. WST-1 agent (Roche Applied Science, Indianapolis Ind.) was added at 1:10 ratio at the end of incubation, and OD (Optical density) was acquired by reading the plates at 415 nm 4 hours later. The Student t test was used for statistical analysis.

[9] = test system: Colo205Luc cells
Protocol: as §4

[10] = test system: CD20; assay: In vivo experiments targeting CD20 (Rituxan): tumor growth; parameters: species or system SCID mice; conditions: data not shown
Protocol: as §3

[11] = test system: Hs445; assay: WST-1 cell growth assay, Hs445; type: cell-based, human; conditions: low dose, six experiments
Excerpt: as §1

[12] = test system: CHLA136Luc, Lan-1-Luc, H524, Hs445, Daudi cells; assay: In vitro cell growth (WST-1) with mAbs and human complement on selected cell lines (FIG. 3); type: cell-based
Excerpt: as §1

[13] = BEZ235 alone, 25 or 12.5 mg/kg by gavage daily for 2 weeks

## Cn1cnc2c(F)c(Nc3ccc(Br)cc3Cl)c(C(=O)NOCCO)cc21 [AZD6244]
[1]
  cytotoxicity of PGNX at sublytic low dosages: enhanced

## Cn1c(=O)n(-c2ccc(C(C)(C)C#N)cc2)c2c3cc(-c4cnc5ccccc5c4)ccc3ncc21 [BEZ235]
[2]; BEZ235
  cell growth in vitro: decreased
[2]; all BEZ235 doses tested, combined with Rituxan at various doses plus complement, vs each treatment alone
  mAb cytotoxicity: significantly enhanced; also recorded: increased
[2]; combined with low-dose Rituxan (0.0001 μg/ml) plus complement
  accelerated cell growth induced by low dose mAb: significantly inhibited; also recorded: prevented
[3]
  p-PRAS40 expression: inhibited
[4]; BEZ235 1 μM alone
  p-Akt expression: inhibited; also recorded: decreased p-AKT
[4]; BEZ235 at 1 μM
  treatment time giving complete inhibition of p-Akt expression: ≥ 2 h
[4]; cells treated for 4 hrs
  BEZ235 dose giving complete inhibition of p-AKT expression: ≥ 0.5 µM
[5]
  p-Akt expression: inhibited
[6]
  effect on proliferation compared to Wortmannin: greater effect
[6]; BEZ235
  cell growth in vitro: decreased
[6]; BEZ235 with mAbs R24 and PGNX (Table 2)
  mAb cytotoxicity and low-dose growth acceleration: Comparable results
[6]; all BEZ235 doses tested, combined with 3F8 at various doses plus complement, vs each treatment alone
  mAb cytotoxicity: significantly enhanced; also recorded: increased
[6]; combined with low-dose 3F8 (0.001 μg/ml) plus complement
  accelerated cell growth induced by low dose mAb: significantly inhibited; also recorded: prevented
[7]; [13]
  CHLA136Luc growth: significantly reduced
  survival: prolonged survival
[7]; BEZ235 by gavage with high dose mAb
  high mAb dose induced growth inhibition: increased
[7]; BEZ235 by gavage with low-dose PGNX
  low dose mAb (PGNX) induced early tumor growth acceleration: eliminated; also recorded: preventing; also recorded: prevented
[7]; BEZ235 with mAbs, compared with high-dose PGNX and 3F8 alone
  survival of challenged SCID mice: significantly increasing survival
[8]
  effect on proliferation compared to Wortmannin: greater effect
[8]; 5B1 0.001-0.01 μg/ml (BEZ235), 0.001 μg/ml (Wortmannin)
  accelerated cell growth induced by low dose 5B1: inhibited
[9]
  cytotoxicity of Colo205luc cells: significantly enhanced

## Nc1cc(C(F)(F)F)c(-c2cc(N3CCOCC3)nc(N3CCOCC3)n2)cn1 [BKM120]
[6]
  higher mAb dose (plus complement) cytotoxicity: increased
  low mAb dose (plus complement) growth acceleration: prevented
[8]
  5B1 cytotoxicity: enhanced
  tumor cell (Colo205) growth: inhibited
  PGNX induced tumor cell cytotoxicity: enhanced
  tumor cell growth induced by low dose PGNX and complement: dramatically inhibited

## CC(=O)Nc1cccc(-n2c(=O)n(C3CC3)c(=O)c3c(Nc4ccc(I)cc4F)n(C)c(=O)c(C)c32)c1 [GSK202011]
[1]
  cytotoxicity of PGNX at sublytic low dosages: enhanced

## NC1(c2ccc(-c3nc4ccn5c(=O)[nH]nc5c4cc3-c3ccccc3)cc2)CCC1 [MK2206]
[6]
  higher mAb dose (plus complement) cytotoxicity: increased
  low mAb dose (plus complement) growth acceleration: prevented
[8]
  5B1 cytotoxicity: enhanced
  tumor cell (Colo205) growth: inhibited
  PGNX induced tumor cell cytotoxicity: enhanced
  tumor cell growth induced by low dose PGNX and complement: dramatically inhibited

## rituximab [Rituxan]
[2]; low dose, single experiment
  cell growth: significantly accelerated growth
[10]; doses as low as 0.001 mcg
  tumor growth: slight delay of tumor growth
[10]; doses down to 0.001 mcg
  accelerated tumor growth: not seen
[11]
  experiments with significantly accelerated growth: 4
[12]; high mAb doses, with complement
  tumor growth in vitro: inhibited tumor growth
[12]; highest mAb doses, absence of complement
  complement-independent tumor inhibition: detected
[12]; low mAb doses, exclusively in the presence of complement
  tumor cell growth in vitro: accelerated tumor cell growth
